{"source": "patent US20260007599A1", "about": "“TICAGRELOR IV FORMULATIONS FOR USE IN THE TREATMENT OF GRAM-POSITIVE BACTEREMIA” (Hyloris Developments SA, priority 2023, published 2026)", "test": "Storage stability of ticagrelor 6 mg/ml in HPβCD 40% w/w at pH 4.5, 5.5, 6.5, 40° C./75% RH, related substances by HPLC", "type": "physicochemical", "details": "for Acetal impurity, average content / Amine impurity, average content / Impurity at relative retention time 1.52, average content / Oxidative impurity 1, average content / Oxidative impurity 2, average content / Regiomer impurity, average content / Sum impurities >0.05 / Total impurities / Triol Impurity, average content: 40° C./75% RH", "protocol": "HPBCD was dissolved in a buffer solution of pH 4.5, 5.5 or 6.5 prepared separately in water. […] The ticagrelor in buffer solution was filtered through a 0.22 micron filtered and filled in USP Type I glass vials. The vials were stoppered and stored. All precautions were taken during manufacturing, such as N2 purging and avoiding direct exposure to light. The vials were stored at 40° C. and 75% Relative Humidity (RH). To determine the stability of the formulations, batches were evaluated using a related substance method on HPLC. A Gradient HPLC method was used to analyze impurities in formulations using a YMC-Pack Pro C18 column (100×4.6 mm, S-3 μm 12 nm). Good separation was obtained for all the impurities."}
{"smiles": "CCCSc1nc(N[C@@H]2C[C@H]2c2ccc(F)c(F)c2)c2nnn([C@@H]3C[C@H](OCCO)[C@@H](O)[C@H]3O)c2n1", "note": "[ticagrelor, (1S,2S,3R,5S)-3-{7-[(1R,2S)-2-(3,4-difluorophenyl)cyclopropylamino]5-(propylthio)-3H-(1,2,3)triazolo (4,5-D)pyrimidin-3-yl}-5-(2 hydroxyethoxy) cyclopentane-1,2-diol]", "values": [{"measurement": "regiomer impurity level", "setting": "4 weeks 40° C. and 75% RH, specification limit 0.3%", "value": "~0.3", "unit": "%"}, {"measurement": "Acetal impurity, average content", "setting": "pH 4.5, T = 0", "value": 0.05, "unit": "%"}, {"measurement": "Amine impurity, average content", "setting": "pH 4.5, T = 0", "value": 0.05, "unit": "%"}, {"measurement": "Impurity at relative retention time 1.52, average content", "setting": "pH 4.5, T = 0", "value": 0.03, "unit": "%"}, {"measurement": "Oxidative impurity 1, average content", "setting": "pH 4.5, T = 0", "value": 0.00, "unit": "%"}, {"measurement": "Oxidative impurity 2, average content", "setting": "pH 4.5, T = 0", "value": 0.00, "unit": "%"}, {"measurement": "Regiomer impurity, average content", "setting": "pH 4.5, T = 0", "value": 0.00, "unit": "%"}, {"measurement": "Sum impurities >0.05", "setting": "pH 4.5, T = 0", "value": 0.22, "unit": "%"}, {"measurement": "Total impurities", "setting": "pH 4.5, T = 0", "value": 0.36, "unit": "%"}, {"measurement": "Triol Impurity, average content", "setting": "pH 4.5, T = 0", "value": 0.05, "unit": "%"}, {"measurement": "Acetal impurity, average content", "setting": "pH 4.5, T = 2 weeks", "value": 0.06, "unit": "%"}, {"measurement": "Amine impurity, average content", "setting": "pH 4.5, T = 2 weeks", "value": 0.05, "unit": "%"}, {"measurement": "Impurity at relative retention time 1.52, average content", "setting": "pH 4.5, T = 2 weeks", "value": 0.04, "unit": "%"}, {"measurement": "Oxidative impurity 1, average content", "setting": "pH 4.5, T = 2 weeks", "value": 0.00, "unit": "%"}, {"measurement": "Oxidative impurity 2, average content", "setting": "pH 4.5, T = 2 weeks", "value": 0.00, "unit": "%"}, {"measurement": "Regiomer impurity, average content", "setting": "pH 4.5, T = 2 weeks", "value": 0.00, "unit": "%"}, {"measurement": "Sum impurities >0.05", "setting": "pH 4.5, T = 2 weeks", "value": 0.23, "unit": "%"}, {"measurement": "Total impurities", "setting": "pH 4.5, T = 2 weeks", "value": 0.40, "unit": "%"}, {"measurement": "Triol Impurity, average content", "setting": "pH 4.5, T = 2 weeks", "value": 0.05, "unit": "%"}, {"measurement": "Acetal impurity, average content", "setting": "pH 4.5, T = 4 weeks", "value": 0.05, "unit": "%"}, {"measurement": "Amine impurity, average content", "setting": "pH 4.5, T = 4 weeks", "value": 0.05, "unit": "%"}, {"measurement": "Impurity at relative retention time 1.52, average content", "setting": "pH 4.5, T = 4 weeks", "value": 0.03, "unit": "%"}, {"measurement": "Oxidative impurity 1, average content", "setting": "pH 4.5, T = 4 weeks", "value": 0.01, "unit": "%"}, {"measurement": "Oxidative impurity 2, average content", "setting": "pH 4.5, T = 4 weeks", "value": 0.02, "unit": "%"}, {"measurement": "Regiomer impurity, average content", "setting": "pH 4.5, T = 4 weeks", "value": 0.42, "unit": "%"}, {"measurement": "Sum impurities >0.05", "setting": "pH 4.5, T = 4 weeks", "value": 0.63, "unit": "%"}, {"measurement": "Total impurities", "setting": "pH 4.5, T = 4 weeks", "value": 0.80, "unit": "%"}, {"measurement": "Triol Impurity, average content", "setting": "pH 4.5, T = 4 weeks", "value": 0.05, "unit": "%"}, {"measurement": "Acetal impurity, average content", "setting": "pH 5.5, T = 0", "value": 0.05, "unit": "%"}, {"measurement": "Amine impurity, average content", "setting": "pH 5.5, T = 0", "value": 0.04, "unit": "%"}, {"measurement": "Impurity at relative retention time 1.52, average content", "setting": "pH 5.5, T = 0", "value": 0.02, "unit": "%"}, {"measurement": "Oxidative impurity 1, average content", "setting": "pH 5.5, T = 0", "value": 0.00, "unit": "%"}, {"measurement": "Oxidative impurity 2, average content", "setting": "pH 5.5, T = 0", "value": 0.00, "unit": "%"}, {"measurement": "Regiomer impurity, average content", "setting": "pH 5.5, T = 0", "value": 0.00, "unit": "%"}, {"measurement": "Sum impurities >0.05", "setting": "pH 5.5, T = 0", "value": 0.16, "unit": "%"}, {"measurement": "Total impurities", "setting": "pH 5.5, T = 0", "value": 0.33, "unit": "%"}, {"measurement": "Triol Impurity, average content", "setting": "pH 5.5, T = 0", "value": 0.05, "unit": "%"}, {"measurement": "Acetal impurity, average content", "setting": "pH 5.5, T = 2 weeks", "value": 0.05, "unit": "%"}, {"measurement": "Amine impurity, average content", "setting": "pH 5.5, T = 2 weeks", "value": 0.05, "unit": "%"}, {"measurement": "Impurity at relative retention time 1.52, average content", "setting": "pH 5.5, T = 2 weeks", "value": 0.03, "unit": "%"}, {"measurement": "Oxidative impurity 1, average content", "setting": "pH 5.5, T = 2 weeks", "value": 0.00, "unit": "%"}, {"measurement": "Oxidative impurity 2, average content", "setting": "pH 5.5, T = 2 weeks", "value": 0.00, "unit": "%"}, {"measurement": "Regiomer impurity, average content", "setting": "pH 5.5, T = 2 weeks", "value": 0.00, "unit": "%"}, {"measurement": "Sum impurities >0.05", "setting": "pH 5.5, T = 2 weeks", "value": 0.21, "unit": "%"}, {"measurement": "Total impurities", "setting": "pH 5.5, T = 2 weeks", "value": 0.36, "unit": "%"}, {"measurement": "Triol Impurity, average content", "setting": "pH 5.5, T = 2 weeks", "value": 0.05, "unit": "%"}, {"measurement": "Acetal impurity, average content", "setting": "pH 5.5, T = 4 weeks", "value": 0.05, "unit": "%"}, {"measurement": "Amine impurity, average content", "setting": "pH 5.5, T = 4 weeks", "value": 0.04, "unit": "%"}, {"measurement": "Impurity at relative retention time 1.52, average content", "setting": "pH 5.5, T = 4 weeks", "value": 0.02, "unit": "%"}, {"measurement": "Oxidative impurity 1, average content", "setting": "pH 5.5, T = 4 weeks", "value": 0.01, "unit": "%"}, {"measurement": "Oxidative impurity 2, average content", "setting": "pH 5.5, T = 4 weeks", "value": 0.02, "unit": "%"}, {"measurement": "Regiomer impurity, average content", "setting": "pH 5.5, T = 4 weeks", "value": 0.30, "unit": "%"}, {"measurement": "Sum impurities >0.05", "setting": "pH 5.5, T = 4 weeks", "value": 0.45, "unit": "%"}, {"measurement": "Total impurities", "setting": "pH 5.5, T = 4 weeks", "value": 0.65, "unit": "%"}, {"measurement": "Triol Impurity, average content", "setting": "pH 5.5, T = 4 weeks", "value": 0.05, "unit": "%"}, {"measurement": "Acetal impurity, average content", "setting": "pH 6.5, T = 0", "value": 0.06, "unit": "%"}, {"measurement": "Amine impurity, average content", "setting": "pH 6.5, T = 0", "value": 0.05, "unit": "%"}, {"measurement": "Impurity at relative retention time 1.52, average content", "setting": "pH 6.5, T = 0", "value": 0.03, "unit": "%"}, {"measurement": "Oxidative impurity 1, average content", "setting": "pH 6.5, T = 0", "value": 0.00, "unit": "%"}, {"measurement": "Oxidative impurity 2, average content", "setting": "pH 6.5, T = 0", "value": 0.00, "unit": "%"}, {"measurement": "Regiomer impurity, average content", "setting": "pH 6.5, T = 0", "value": 0.00, "unit": "%"}, {"measurement": "Sum impurities >0.05", "setting": "pH 6.5, T = 0", "value": 0.22, "unit": "%"}, {"measurement": "Total impurities", "setting": "pH 6.5, T = 0", "value": 0.36, "unit": "%"}, {"measurement": "Triol Impurity, average content", "setting": "pH 6.5, T = 0", "value": 0.06, "unit": "%"}, {"measurement": "Acetal impurity, average content", "setting": "pH 6.5, T = 2 weeks", "value": 0.06, "unit": "%"}, {"measurement": "Amine impurity, average content", "setting": "pH 6.5, T = 2 weeks", "value": 0.05, "unit": "%"}, {"measurement": "Impurity at relative retention time 1.52, average content", "setting": "pH 6.5, T = 2 weeks", "value": 0.04, "unit": "%"}, {"measurement": "Oxidative impurity 1, average content", "setting": "pH 6.5, T = 2 weeks", "value": 0.00, "unit": "%"}, {"measurement": "Oxidative impurity 2, average content", "setting": "pH 6.5, T = 2 weeks", "value": 0.00, "unit": "%"}, {"measurement": "Regiomer impurity, average content", "setting": "pH 6.5, T = 2 weeks", "value": 0.00, "unit": "%"}, {"measurement": "Sum impurities >0.05", "setting": "pH 6.5, T = 2 weeks", "value": 0.23, "unit": "%"}, {"measurement": "Total impurities", "setting": "pH 6.5, T = 2 weeks", "value": 0.41, "unit": "%"}, {"measurement": "Triol Impurity, average content", "setting": "pH 6.5, T = 2 weeks", "value": 0.06, "unit": "%"}, {"measurement": "Acetal impurity, average content", "setting": "pH 6.5, T = 4 weeks", "value": 0.06, "unit": "%"}, {"measurement": "Amine impurity, average content", "setting": "pH 6.5, T = 4 weeks", "value": 0.05, "unit": "%"}, {"measurement": "Impurity at relative retention time 1.52, average content", "setting": "pH 6.5, T = 4 weeks", "value": 0.03, "unit": "%"}, {"measurement": "Oxidative impurity 1, average content", "setting": "pH 6.5, T = 4 weeks", "value": 0.00, "unit": "%"}, {"measurement": "Oxidative impurity 2, average content", "setting": "pH 6.5, T = 4 weeks", "value": 0.04, "unit": "%"}, {"measurement": "Regiomer impurity, average content", "setting": "pH 6.5, T = 4 weeks", "value": 0.35, "unit": "%"}, {"measurement": "Sum impurities >0.05", "setting": "pH 6.5, T = 4 weeks", "value": 0.56, "unit": "%"}, {"measurement": "Total impurities", "setting": "pH 6.5, T = 4 weeks", "value": 0.72, "unit": "%"}, {"measurement": "Triol Impurity, average content", "setting": "pH 6.5, T = 4 weeks", "value": 0.05, "unit": "%"}]}
